Measured values reported in patent US8394785B2, “Methods for the treatment and amelioration of urticaria” (Jado Technologies GmbH, priority 2005, dated 2013).

Columns and labels:
[1] = test system: Rat basophilic leukemia (RBL-2H3) cells; assay: Mast cell degranulation assay (β-hexosaminidase release); type: cell-based; conditions: Rattus norvegicus
Procedure: The assay measures release of β-hexosaminidase as a marker of release of various preformed pharmacological agents in response to clustering of the high affinity IgE receptor (FcεRI) by means of multivalent antigen-IgE complexes. Rat basophilic leukemia (RBL-2H3) cells, a commonly used model of mast cell degranulation, are sensitized with anti-DNP specific IgE and challenged with multivalent DNP-BSA. The release of β-hexosaminidase into the supernatant is measured by enzymatic conversion of the fluorogenic substrate 4-methylumbelliferyl-N-acetyl-β-D-glucosaminide to N-acetyl-β-D-glucosamine and highly fluorescent methylumbelliferone and quantified by fluorescence detection in a Tecan Safire™ plate reader.
RBL-2H3 cells obtained from the German Collection of Microorganisms and Cell Cultures (Braunschweig, Germany) were maintained in 70% Minimum Essential Medium with Earle's Salts/20% RPMI 1640/10% heat-inactivated fetal calf serum) supplemented with 2 mM GlutaMAX™-I in 5% CO2 at 37° C. and routinely checked to be free of mycoplasma contamination. Cells grown in 175 cm^2 flasks were split with 0.05% Trypsin/EDTA and resuspended in 20 ml fresh medium. One hundred and 50 μl cell suspension were plated per well into 24 well cluster plates (Costar, Schiphol-Rijk, Netherlands) and cells were used one or two days after plating, respectively.
Two to 24 hours before incubation with test compounds the medium was removed and cells were sensitized with 0.4 μg/ml anti-DNP IgE in fresh medium. Following sensitization, cells were washed once with warm TyB and incubated for 60 min with test compound at a maximum of 100 μM or the highest non-toxic concentration (total vehicle concentration adjusted to 1%) or 1% vehicle in TyB at 37° C. DNP-HSA (0.1 μg/ml final concentration) or buffer alone was added and cells incubated for 15 min at 37° C. Plates were centrifuged at 4° C. for 5 min at 250×g and immediately transferred to ice. Supernatants were collected and the cells lysed with lysis buffer. Hexosaminidase activity in supernatants and lysates was measured by incubating 25 μl aliquots with 100 μl MUG substrate solution in a 96-well plate at 37° C. for 30 min. The reaction was terminated by addition of 150 μl stop solution. Fluorescence was measured in a Tecan Safire™ plate reader at 365 nm excitation and 440 nm emission settings.
Each compound is tested in duplicates in at least three independent experiments. β-hexosaminidase release is calculated after subtraction of unspecific release (release without addition of antigen) using the formula: % degranulation=100×RFU supernatant/RFU lysate
Inhibition of β-hexosaminidase release with respect to control is calculated as
follows: % inhibition=100×(1−(RFU supernatant of compound/RFU supernatant of control))

human basophils = assay: Histamine release assay, anti-IgE induced, human basophils; type: cell-based; conditions: 10 minutes pre-incubation, read-out: maximal inhibitory effect on anti-IgE induced histamine release
Procedure: Human basophils were isolated from whole blood using ficoll paque (D=1.077). Briefly, heparinized whole blood was diluted 1:3 with PBS (w/o Ca and Mg), layered on the ficoll paque solution, and centrifuged for 30 min at 400×g. Low-density particles such as lymphocytes, monocytes, basophils, and platelets were recovered from the interface between the plasma and ficoll solution. The cell suspension from the interface was centrifuged twice at 200×g for 10 min for removal of thrombocytes from the basophil fraction. The number of basophils in the cell suspension was determined by Toluidin blue staining. The yield of basophils was approximately 2%. These pre-purified basophils were used for the histamine release assay. For the cytokine release assays, basophils were further purified using the “Basophil Isolation Kit” for depletion of non-basophils from the interface cell suspension. […] The quantification of histamine levels was achieved using an automated histamine-analyser system (Firm Borgwelt Technik). The wavelength of the excitation was 355-360 nm and the emission wavelength of fluorescence measurement was 450-460 nm. The intensity of fluorescence was directly proportional to the concentration of histamine in the samples. The amount of released histamine was calculated according to the following formula: net histamine release=(release−blank)×(100/complete). […]

`CCCCCCCCCCCCCCCCOP(=O)([O-])OCC[N+](C)(C)C` [Compound 3, 1-hexadecylphosphoryl-choline] was tested, and the IC50 ([1]; 1 h, concentration at which 50% of maximal inhibition is reached, RBL-2H3, 60 min incubation with compound, DNP antigen challenge, read-out: ID50 (the source's name)) was 4.6 µM, the inhibition at 10 µM ([1]; RBL-2H3, 10 μM, read-out: maximum inhibition (concentration used)) was 87% and the inhibition at 25 µM ([1]; RBL-2H3, at or 25 μM, read-out: inhibition of degranulation) was over 75%. The inhibition at 25 µM (human basophils) was 10%.
